Experimental data from patent US9732115B2, “3-(4′-substituted)-benzyl-ether derivatives of pregnenolone” (INSERM (Institut National de la Sante et de la Recherche …, priority 2012, dated 2017).

Tested on: CHO cell line
Assay: In vitro test of metabolization in CHO cells (steroids in culture medium by GC/MS)
Protocol: In Vitro Test of Metabolization
In this example, CHO cell line was used. These cells derived from the ovary have all the enzymes needed to metabolize pregnenolone in downstream steroids.
The content in CHO culture medium of allopregnanolone (ALLO), epiallopregnanolone (EPIALLO), pregnenolone (PREG), DHEA, and testosterone (TESTO) was measured by GC/MS.
Pregnenolone derivatives having C3 substituted with benzyloxy were tested using in vitro test in CHO cells.
Results expressed as percentage changes from CHO cells treated with Pregnenolone or as pg/ml (0=concentrations below the detection limit).

[1] = CHO culture medium, Pregnenolone 1 μM, 48 hours, GC/MS

SMILES	Allopregnanolone and Epiallopregnanolone in the culture medium (in words) (CHO cells, 1 μM, 48 hours)	ALLO (allopregnanolone) steroid levels [1]	DHEA steroid levels [1]	EPIALLO (epiallopregnanolone) steroid levels [1]	PREG (pregnenolone) steroid levels [1]	TESTO (testosterone) steroid levels [1]	metabolised in Pregnenolone (in words) (CHO cells, Table 2)
CC(=O)[C@H]1CC[C@H]2[C@@H]3CC=C4C[C@@H](O)CC[C@]4(C)[C@H]3CC[C@]12C [Pregnenolone]	significant increase	3529.99 pg/mL	0.00 pg/mL	16963.84 pg/mL	11440.66 pg/mL	0.00 pg/mL	
COc1ccc(CO[C@H]2CC[C@@]3(C)C(=CCC4C3CC[C@@]3(C)C4CC[C@]3(C)C(C)=O)C2)cc1 (stereo partly drawn) [Compound 68, 3β-(p-methoxy- benzyloxy)-17α- methyl- pregnenolone]							not metabolised
